Reference: ChEMBL document CHEMBL1201862, “PubChem BioAssay data set” (2004)
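Results reflect a 48-hour exposure of cells in 96-well plates to compound at five concentrations. GI50 is the concentration that inhibits growth by half.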 Active and inactive are the calls of the source. No stated cut-off is given here; in the data, active = GI50 up to about 1.1 µM and inactive = higher.

Key:
Test in all cases: NCI anticancer screen, dose series, 48 h
A549 = tested on: A549
DLD-1 = tested on: DLD-1
EKVX = tested on: EKVX
HL-60 = tested on: HL-60
IGROV-1 = tested on: IGROV-1
K562 = tested on: K562
NCI-H23 = tested on: NCI-H23
OVCAR-3 = tested on: OVCAR-3
OVCAR-8 = tested on: OVCAR-8
RXF 393 = tested on: RXF 393
SF-268 = tested on: SF-268
SK-OV-3 = tested on: SK-OV-3
SN12C = tested on: SN12C
SNB-19 = tested on: SNB-19
UO-31 = tested on: UO-31
HOP-92 = tested on: HOP-92
NCI/ADR-RES = tested on: NCI/ADR-RES
PC-3 = tested on: PC-3
SK-MEL-2 = tested on: SK-MEL-2

| Structure (SMILES) | GI50 (A549) | GI50 (DLD-1) | GI50 (EKVX) | GI50 (HL-60) | GI50 (IGROV-1) | GI50 (K562) | GI50 (NCI-H23) | GI50 (OVCAR-3) | GI50 (OVCAR-8) | GI50 (RXF 393) | GI50 (SF-268) | GI50 (SK-OV-3) | GI50 (SN12C) | GI50 (SNB-19) | GI50 (UO-31) | GI50 (HOP-92) | GI50 (NCI/ADR-RES) | GI50 (PC-3) | GI50 (SK-MEL-2) |
| --- | --- | --- | --- | --- | --- | --- | --- | --- | --- | --- | --- | --- | --- | --- | --- | --- | --- | --- | --- |
| CC(=O)Nc1ccc2c(c1)C(=O)c1ccccc1-2 | > 100 µM (inactive) | > 100 µM (inactive) | > 100 µM (inactive) | > 100 µM (inactive) | > 100 µM (inactive) | > 100 µM (inactive) | > 100 µM (inactive) | > 100 µM (inactive) | > 100 µM (inactive) | > 100 µM (inactive) | > 100 µM (inactive) | > 100 µM (inactive) | > 100 µM (inactive) | > 100 µM (inactive) | > 100 µM (inactive) | – | – | – | – |
| CC(CN(C)C)/C(=N\Nc1ccccc1)c1ccccc1 (stereo not drawn) | 0.44 µM (active) | 0.256 µM (active) | 1.3 µM (inactive) | 0.419 µM (active) | 2.09 µM (inactive) | 0.112 µM (active) | 3.4 µM (inactive) | 1.16 µM (inactive) | 12.7 µM (inactive) | 11.4 µM (inactive) | 0.22 µM (active) | 15.6 µM (inactive) | 3.19 µM (inactive) | 3.72 µM (inactive) | 1.13 µM (inactive) | – | – | – | – |
| COC(=O)[C@]1(c2cc3ccccc3[nH]2)CC2CN(C(=O)OCc3ccccc3)C1CC2=O (stereo partly drawn) | 23.3 µM (inactive) | – | 17.1 µM (inactive) | 16.4 µM (inactive) | 29.7 µM (inactive) | 18.7 µM (inactive) | 29.7 µM (inactive) | 28.8 µM (inactive) | 26.7 µM (inactive) | 16.2 µM (inactive) | 27.4 µM (inactive) | 33.4 µM (inactive) | 17.4 µM (inactive) | 59.7 µM (inactive) | 21.3 µM (inactive) | 20.4 µM (inactive) | 29.3 µM (inactive) | 17.1 µM (inactive) | 18.2 µM (inactive) |
| Cc1cc(NS(=O)(=O)c2ccc(NC(=O)c3cccc4c(NNc5ccc(S(=O)(=O)N=C(N)N)cc5)c5ccccc5nc34)cc2)no1 | > 100 µM (inactive) | – | 19.7 µM (inactive) | 26.7 µM (inactive) | 45.6 µM (inactive) | 36.8 µM (inactive) | 74.5 µM (inactive) | 41.2 µM (inactive) | 51.1 µM (inactive) | 46.8 µM (inactive) | 39 µM (inactive) | 54.2 µM (inactive) | 70.3 µM (inactive) | 45.6 µM (inactive) | 54.2 µM (inactive) | 17.3 µM (inactive) | > 100 µM (inactive) | 46.1 µM (inactive) | 19.5 µM (inactive) |
| COc1cc2cc(C(=O)N3CC(COS(C)(=O)=O)c4c3cc([N+](=O)[O-])c3ccccc43)[nH]c2c(OC)c1OC (stereo not drawn) | 2.81 µM (inactive) | – | > 31.6 µM (inactive) | 0.794 µM (active) | 23.5 µM (inactive) | > 100 µM (inactive) | 2.78 µM (inactive) | > 31.6 µM (inactive) | 2.15 µM (inactive) | 18.3 µM (inactive) | 10.5 µM (inactive) | 61.9 µM (inactive) | 5.83 µM (inactive) | > 31.6 µM (inactive) | 2.56 µM (inactive) | > 31.6 µM (inactive) | 0.698 µM (active) | 22.9 µM (inactive) | 7.71 µM (inactive) |
| CC1(C)CCC2=C(O1)/C(=N\Nc1ccc(F)cc1)c1ccccc1C2=O | 16.1 µM (inactive) | – | 22.4 µM (inactive) | 16 µM (inactive) | 31.9 µM (inactive) | 49.5 µM (inactive) | 25.2 µM (inactive) | 21 µM (inactive) | 41.8 µM (inactive) | 35.2 µM (inactive) | 52.1 µM (inactive) | 54.7 µM (inactive) | 32.3 µM (inactive) | 35.6 µM (inactive) | 38.2 µM (inactive) | 39.5 µM (inactive) | 71.8 µM (inactive) | 34.8 µM (inactive) | 32.3 µM (inactive) |
| CN(C)CCNc1nc2ccccc2c2c1CCCC2 | 32.6 µM (inactive) | – | 37.9 µM (inactive) | 14.8 µM (inactive) | 17.2 µM (inactive) | 20.3 µM (inactive) | 33.3 µM (inactive) | 30.8 µM (inactive) | 31.8 µM (inactive) | 8.65 µM (inactive) | 32.1 µM (inactive) | 18.2 µM (inactive) | 22.9 µM (inactive) | 29.9 µM (inactive) | 11.2 µM (inactive) | 12.3 µM (inactive) | 25.1 µM (inactive) | 26.5 µM (inactive) | 17.2 µM (inactive) |
| O=C1O/C(=C(/Br)c2ccc(Cl)c(Cl)c2)c2ccccc21 | > 10 µM (inactive) | – | > 10 µM (inactive) | > 10 µM (inactive) | > 10 µM (inactive) | > 10 µM (inactive) | > 10 µM (inactive) | > 10 µM (inactive) | > 10 µM (inactive) | > 10 µM (inactive) | > 10 µM (inactive) | > 10 µM (inactive) | > 10 µM (inactive) | > 10 µM (inactive) | > 10 µM (inactive) | > 10 µM (inactive) | > 10 µM (inactive) | > 10 µM (inactive) | > 10 µM (inactive) |
| O=P1(Oc2ccccc2)N(CCCl)CCN1c1ccccc1 (stereo not drawn) | > 100 µM (inactive) | – | 80.4 µM (inactive) | > 100 µM (inactive) | 42.7 µM (inactive) | > 100 µM (inactive) | > 100 µM (inactive) | > 100 µM (inactive) | > 100 µM (inactive) | 58.5 µM (inactive) | > 100 µM (inactive) | > 100 µM (inactive) | > 100 µM (inactive) | > 100 µM (inactive) | > 100 µM (inactive) | > 100 µM (inactive) | 83.6 µM (inactive) | > 100 µM (inactive) | > 100 µM (inactive) |
| C=CC(OC(C)=O)c1ccc(OC(=O)C(C)C)c(OC)c1 (stereo not drawn) | 18.8 µM (inactive) | – | 7.5 µM (inactive) | 2.79 µM (inactive) | 12.9 µM (inactive) | 3.15 µM (inactive) | 9.4 µM (inactive) | 5.81 µM (inactive) | 4.81 µM (inactive) | 3.18 µM (inactive) | 7.8 µM (inactive) | 16.6 µM (inactive) | 3.63 µM (inactive) | 11.8 µM (inactive) | 3.44 µM (inactive) | 5.93 µM (inactive) | 10.2 µM (inactive) | 5.19 µM (inactive) | 4.48 µM (inactive) |
| CC(=O)OCc1cncn1S(=O)(=O)c1ccc(C)cc1 | > 100 µM (inactive) | – | > 100 µM (inactive) | 10.8 µM (inactive) | > 74 µM (inactive) | 5.37 µM (inactive) | > 100 µM (inactive) | 43.5 µM (inactive) | > 91.4 µM (inactive) | > 100 µM (inactive) | > 100 µM (inactive) | > 100 µM (inactive) | > 91.2 µM (inactive) | > 100 µM (inactive) | > 100 µM (inactive) | > 100 µM (inactive) | > 55.5 µM (inactive) | > 100 µM (inactive) | > 100 µM (inactive) |
| Cn1cc(NC(=O)c2cc(NC(=O)CNC(=N)N)cn2C)cc1C(=O)NCCC(=N)N [NETROPSIN CHLORIDE] | > 100 µM (inactive) | – | > 100 µM (inactive) | > 100 µM (inactive) | > 100 µM (inactive) | > 100 µM (inactive) | > 100 µM (inactive) | > 100 µM (inactive) | > 100 µM (inactive) | > 100 µM (inactive) | > 100 µM (inactive) | > 100 µM (inactive) | > 100 µM (inactive) | > 100 µM (inactive) | > 100 µM (inactive) | > 100 µM (inactive) | > 100 µM (inactive) | > 100 µM (inactive) | > 100 µM (inactive) |
| O=C1CN(/N=C/c2ccc(-c3ccc(F)cc3)o2)C(=O)N1 | 52.2 µM (inactive) | – | > 100 µM (inactive) | 55.6 µM (inactive) | 41.6 µM (inactive) | 35 µM (inactive) | 82.6 µM (inactive) | > 100 µM (inactive) | > 100 µM (inactive) | > 100 µM (inactive) | > 100 µM (inactive) | > 100 µM (inactive) | 91.2 µM (inactive) | 83.9 µM (inactive) | 75.2 µM (inactive) | 0.394 µM (active) | 25.9 µM (inactive) | > 100 µM (inactive) | 34.6 µM (inactive) |
| CC(=O)Nc1ccc2c(c1)C(=O)c1cccc(F)c1-2 | 49.2 µM (inactive) | – | > 100 µM (inactive) | > 100 µM (inactive) | 20.1 µM (inactive) | 50.2 µM (inactive) | 43.9 µM (inactive) | 68.2 µM (inactive) | 58.2 µM (inactive) | 23.6 µM (inactive) | 48.1 µM (inactive) | > 100 µM (inactive) | 42.2 µM (inactive) | > 100 µM (inactive) | 21.2 µM (inactive) | 65.5 µM (inactive) | 48.2 µM (inactive) | 45.7 µM (inactive) | > 100 µM (inactive) |
| COC1(OC)CCCCCCCCC(OC)(OC)CCCCCCCC1 | > 100 µM (inactive) | – | > 100 µM (inactive) | > 100 µM (inactive) | > 100 µM (inactive) | > 100 µM (inactive) | > 100 µM (inactive) | > 100 µM (inactive) | > 100 µM (inactive) | > 100 µM (inactive) | > 100 µM (inactive) | > 100 µM (inactive) | > 100 µM (inactive) | > 100 µM (inactive) | 0.553 µM (active) | > 100 µM (inactive) | > 100 µM (inactive) | > 100 µM (inactive) | > 100 µM (inactive) |
| CCN(CC)CCOC(=O)/C(=C/c1ccc(OC)cc1)c1cc(OC)c(OC)c(OC)c1 | 5.56 µM (inactive) | 28.1 µM (inactive) | 31.5 µM (inactive) | 3.3 µM (inactive) | 6.01 µM (inactive) | 3.29 µM (inactive) | – | 4.95 µM (inactive) | 15.5 µM (inactive) | 2.15 µM (inactive) | 5.45 µM (inactive) | – | 16.1 µM (inactive) | 13.4 µM (inactive) | 5.13 µM (inactive) | 3.27 µM (inactive) | – | – | – |
